The target in experiment [1] is Cyclin-dependent kinase 2 (Homo sapiens, UniProt P24941).
The nature of experiment [2]: Inhibition of GSK3.
In experiment [3] the test system is HT-29. Kind of experiment: Antiproliferative activity against human HT-29 cells. The class given is functional, cell-based.
Experiment [4] addresses T1, Aurora kinase A (Homo sapiens, UniProt O14965).
T1 sequence (O14965 whole entry): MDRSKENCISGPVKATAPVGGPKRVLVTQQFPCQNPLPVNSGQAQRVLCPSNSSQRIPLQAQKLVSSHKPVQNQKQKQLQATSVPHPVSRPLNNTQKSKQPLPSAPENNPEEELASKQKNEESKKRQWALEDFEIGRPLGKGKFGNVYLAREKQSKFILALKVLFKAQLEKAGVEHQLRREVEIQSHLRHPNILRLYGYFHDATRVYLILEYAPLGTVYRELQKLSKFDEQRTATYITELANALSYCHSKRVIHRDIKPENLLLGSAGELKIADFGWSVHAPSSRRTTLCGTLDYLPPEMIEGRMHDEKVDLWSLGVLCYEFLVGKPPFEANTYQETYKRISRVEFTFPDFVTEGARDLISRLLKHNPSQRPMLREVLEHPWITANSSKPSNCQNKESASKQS
In words: Inhibition of AURA.

Experiment [5] deals with Mitogen-activated protein kinase 1 (Homo sapiens, UniProt P28482).
Mitogen-activated protein kinase 1, sequence (P28482 whole entry): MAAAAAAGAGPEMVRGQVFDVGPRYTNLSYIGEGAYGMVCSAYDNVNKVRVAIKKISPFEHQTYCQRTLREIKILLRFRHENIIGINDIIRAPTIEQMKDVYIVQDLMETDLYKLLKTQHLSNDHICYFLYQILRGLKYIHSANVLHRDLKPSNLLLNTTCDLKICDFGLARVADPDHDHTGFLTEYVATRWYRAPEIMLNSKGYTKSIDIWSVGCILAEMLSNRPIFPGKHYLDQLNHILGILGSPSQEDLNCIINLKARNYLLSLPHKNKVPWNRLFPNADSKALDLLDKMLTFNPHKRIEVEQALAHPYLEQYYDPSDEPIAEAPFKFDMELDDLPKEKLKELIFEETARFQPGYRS
Description: Inhibition of ERK2 after 10 mins by spectrophotometric coupled-enzyme assay

As usually defined, the Ki is a dissociation constant, usually derived from enzyme kinetics or from competition with a known ligand. Lower therefore signals higher affinity. By IC50 is commonly meant the concentration at which inhibition is half-maximal. Low values mean greater potency, high ones weaker potency. Regarding `Cc1cc(Cl)ccc1Nc1ncc(C)c(-c2c[nH]c(C(=O)N[C@H](CO)c3cccc(Cl)c3)c2)n1`, the Ki in experiment [1] amounted to 76 nM; in experiment [2], 1100 nM; in experiment [4], 410 nM; in experiment [5], 5 nM. In experiment [3], this compound showed an IC50 of 98 nM.

Consider `CCc1ccccc1Nc1ncc(C)c(-c2c[nH]c(C(=O)N[C@H](CO)c3cccc(Cl)c3)c2)n1`, for which the Ki is 450 nM in experiment [1], 150 nM in experiment [2], 720 nM in experiment [4] and less than 2 nM in experiment [5]. The compound further yielded an IC50 in experiment [3] of 39 nM.

As to `Cc1cnc(Nc2cccc(F)c2C)nc1-c1c[nH]c(C(=O)N[C@H](CO)c2cccc(Cl)c2)c1`, the Ki in experiment [1] is 150 nM; in experiment [2], 1260 nM; in experiment [4] it was 410 nM; in experiment [5], 34 nM. Also, the IC50 in experiment [3] was found to be 56 nM.

Regarding `Cc1cnc(Nc2cccc(C)c2C)nc1-c1c[nH]c(C(=O)N[C@H](CO)c2cccc(Cl)c2)c1`, the Ki was 41 nM in experiment [1], 110 nM in experiment [2], 440 nM in experiment [4] and less than 2 nM in experiment [5].

With `COc1cccc(Nc2ncc(C)c(-c3c[nH]c(C(=O)N[C@H](CO)c4cccc(Cl)c4)c3)n2)c1OC`, the Ki was greater than 2500 nM in experiment [1], greater than 2500 nM in experiment [2], greater than 200 nM in experiment [4] and 3 nM in experiment [5]. In addition, the IC50 in experiment [3] amounted to 230 nM.

Turning to `Cc1cnc(Nc2ccccc2O)nc1-c1c[nH]c(C(=O)N[C@H](CO)c2ccccc2)c1`, the Ki in experiment [1] is less than 100 nM; in experiment [2], less than 2 nM; in experiment [4], 99 nM; in experiment [5], 4 nM. Further, half-maximal inhibition in experiment [3] (IC50) required 3000 nM.

Regarding `Cc1cnc(Nc2ccccc2Cl)nc1-c1c[nH]c(C(=O)N[C@H](CO)c2ccccc2)c1`, the Ki in experiment [1] was 240 nM; in experiment [2], 190 nM; in experiment [4] it was 1550 nM; in experiment [5], less than 2 nM.

Take `Cc1cnc(Nc2ccccc2)nc1-c1c[nH]c(C(=O)N[C@@H](CO)c2ccccc2)c1`: the Ki in experiment [4] stood at 270 nM; in experiment [5], 670 nM.

As to `Cc1cnc(Nc2cccc3c2CCC3)nc1-c1c[nH]c(C(=O)N[C@H](CO)c2cccc(Cl)c2)c1`, the Ki in experiment [1] is 642 nM; in experiment [2], 350 nM; in experiment [4] it was 550 nM; in experiment [5] it was less than 2 nM. The compound also registered an IC50 in experiment [3] of 250 nM.

Take `CCc1ccccc1Nc1ncc(C)c(-c2c[nH]c(C(=O)N[C@H](CO)c3ccccc3)c2)n1`: the Ki in experiment [1] was found to be 210 nM; in experiment [2], 760 nM; in experiment [4], 1430 nM; in experiment [5], 3 nM. In addition, it took 66 nM to reach half-maximal inhibition in experiment [3] (IC50).

For the compound `Cc1cnc(Nc2cccc3c2OC(F)(F)O3)nc1-c1c[nH]c(C(=O)N[C@H](CO)c2cccc(Cl)c2)c1`, the Ki in experiment [1] was 170 nM; in experiment [2] it was 310 nM; in experiment [4] it was greater than 800 nM; in experiment [5] it was less than 2 nM. Besides, the IC50 in experiment [3] turned out to be 280 nM.

Regarding `Cc1cnc(Nc2ccccc2C(F)(F)F)nc1-c1c[nH]c(C(=O)N[C@H](CO)c2ccccc2)c1`, the values for the Ki in experiment [1] and in experiment [4] were greater than 4000 nM and greater than 800 nM, respectively. In experiment [3], half-maximal inhibition (IC50) required 6300 nM.

With `Cc1cnc(Nc2cccc3c2OCCO3)nc1-c1c[nH]c(C(=O)N[C@H](CO)c2cccc(Cl)c2)c1`, the Ki worked out at 138 nM in experiment [1], 45 nM in experiment [2], 11 nM in experiment [4] and 15 nM in experiment [5]. This compound gave an IC50 in experiment [3] of 58 nM.

Regarding `Cc1ccccc1Nc1ncc(C)c(-c2c[nH]c(C(=O)N[C@H](CO)c3ccccc3)c2)n1`, the Ki in experiment [4] was 860 nM.

Take `Cc1cnc(Nc2ccccc2)nc1-c1c[nH]c(C(=O)N[C@H](CO)c2cccc(Cl)c2)c1`: the Ki in experiment [1] is 290 nM; in experiment [2], 140 nM; in experiment [4], 19 nM; in experiment [5], less than 2 nM. In experiment [3], this compound had an IC50 of 100 nM.

With `Cc1ccccc1Nc1ncc(C)c(-c2c[nH]c(C(=O)N[C@H](CO)c3cccc(Cl)c3)c2)n1`, the values for the Ki in experiment [2] and in experiment [4] were less than 2 nM and 400 nM, respectively.

Consider `Cc1cccc([C@@H](CO)NC(=O)c2cc(-c3nc(Nc4ccccc4)ncc3C)c[nH]2)c1`, for which the Ki is 69 nM in experiment [1], 26 nM in experiment [2], 45 nM in experiment [4] and less than 2 nM in experiment [5]. The same compound registered an IC50 in experiment [3] of 40 nM.

`Cc1cnc(Nc2ccc(Cl)cc2F)nc1-c1c[nH]c(C(=O)N[C@H](CO)c2cccc(Cl)c2)c1`: the Ki in experiment [1] was 316 nM; in experiment [2], 450 nM; in experiment [4], 540 nM; in experiment [5], 5 nM. In experiment [3], the IC50 was 97 nM.

Regarding `Cc1cnc(Nc2ccccc2)nc1-c1c[nH]c(C(=O)N[C@H](CO)c2ccccc2)c1`, half-maximal inhibition in experiment [3] (IC50) required 29 nM. Further, the figures for the Ki in experiment [4] and in experiment [5] were 15 nM and less than 2 nM, respectively.

As for `Cc1cnc(Nc2cccc3c2CCCC3)nc1-c1c[nH]c(C(=O)N[C@H](CO)c2cccc(Cl)c2)c1`, the Ki worked out at 250 nM in experiment [1], 667 nM in experiment [2], 280 nM in experiment [4] and 13 nM in experiment [5]. Moreover, 420 nM corresponded to half-maximal inhibition in experiment [3] (IC50).

With `Cc1cnc(Nc2cccc3c2OCO3)nc1-c1c[nH]c(C(=O)N[C@H](CO)c2cccc(Cl)c2)c1`, the Ki is 209 nM in experiment [1], 33 nM in experiment [2], 15 nM in experiment [4] and less than 2 nM in experiment [5]. Besides, the IC50 in experiment [3] was 58 nM.

As to `Cc1cnc(Nc2ccccc2F)nc1-c1c[nH]c(C(=O)N[C@H](CO)c2ccccc2)c1`, the Ki was 57 nM in experiment [1], 45 nM in experiment [2], 160 nM in experiment [4] and less than 2 nM in experiment [5]. The compound further gave an IC50 in experiment [3] of 26 nM.

The values above are taken from ChEMBL document CHEMBL1154622, “Structure-guided design of potent and selective pyrimidylpyrrole inhibitors of extracellular signal-regulated kinase (ERK) using conformational control” (J Med Chem, 2009).
